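Assay format: 96-well plates, 48-hour exposure. Definition used: TGI = concentration required for complete inhibition of growth.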
How the values were obtained:
Assay in all cases: NCI anticancer screen, dose series, 48 h
786-0 renal = test system: 786-0 renal
A498 renal = test system: A498 renal
A549 NSCLC = test system: A549 NSCLC
ACHN renal = test system: ACHN renal
CAKI-1 renal = test system: CAKI-1 renal
CCRF-CEM leukemia = test system: CCRF-CEM leukemia
COLO 205 colon = test system: COLO 205 colon
DLD-1 colon = test system: DLD-1 colon
DMS 114 small cell lung = test system: DMS 114 small cell lung
EKVX NSCLC = test system: EKVX NSCLC
HCC-2998 colon = test system: HCC-2998 colon
HCT-116 colon = test system: HCT-116 colon
HCT-15 colon = test system: HCT-15 colon
HL-60(TB) leukemia = test system: HL-60(TB) leukemia
HOP-18 NSCLC = test system: HOP-18 NSCLC
HOP-62 NSCLC = test system: HOP-62 NSCLC
HOP-92 NSCLC = test system: HOP-92 NSCLC
HT29 colon = test system: HT29 colon
IGROV1 ovarian = test system: IGROV1 ovarian
K-562 leukemia = test system: K-562 leukemia
KM12 colon = test system: KM12 colon
KM20L2 colon = test system: KM20L2 colon
LOX IMVI melanoma = test system: LOX IMVI melanoma
LXFL 529 NSCLC = test system: LXFL 529 NSCLC
M14 melanoma = test system: M14 melanoma
M19-MEL melanoma = test system: M19-MEL melanoma
MALME-3M melanoma = test system: MALME-3M melanoma
MOLT-4 leukemia = test system: MOLT-4 leukemia
NCI-H226 lung = test system: NCI-H226 lung
NCI-H23 lung = test system: NCI-H23 lung
NCI-H460 lung = test system: NCI-H460 lung
NCI-H522 lung = test system: NCI-H522 lung
OVCAR-3 ovarian = test system: OVCAR-3 ovarian
OVCAR-5 ovarian = test system: OVCAR-5 ovarian
OVCAR-8 ovarian = test system: OVCAR-8 ovarian
RPMI-8226 leukemia = test system: RPMI-8226 leukemia
RXF 393 renal = test system: RXF 393 renal
RXF-631 renal = test system: RXF-631 renal
SF-268 CNS = test system: SF-268 CNS
SF-295 CNS = test system: SF-295 CNS
SF-539 CNS = test system: SF-539 CNS
SK-MEL-2 melanoma = test system: SK-MEL-2 melanoma
SK-MEL-28 melanoma = test system: SK-MEL-28 melanoma
SK-MEL-5 melanoma = test system: SK-MEL-5 melanoma
SK-OV-3 ovarian = test system: SK-OV-3 ovarian
SN12C renal = test system: SN12C renal
SNB-19 CNS = test system: SNB-19 CNS
SNB-75 CNS = test system: SNB-75 CNS
SNB-78 CNS = test system: SNB-78 CNS
SR leukemia = test system: SR leukemia
SW-620 colon = test system: SW-620 colon
TK-10 renal = test system: TK-10 renal
U251 CNS = test system: U251 CNS
UACC-257 melanoma = test system: UACC-257 melanoma
UACC-62 melanoma = test system: UACC-62 melanoma
UO-31 renal = test system: UO-31 renal
XF 498 CNS = test system: XF 498 CNS

Q: Which results are given for `Cc1ccc(C2=[N+]([O-])c3ccccc3C2=O)cc1`?
A: TGI (786-0 renal): 69.4 µM; TGI (A498 renal): > 100 µM; TGI (A549 NSCLC): > 90.7 µM; TGI (ACHN renal): 32 µM; TGI (CAKI-1 renal): > 100 µM; TGI (CCRF-CEM leukemia): 25.9 µM; TGI (COLO 205 colon): > 72.8 µM; TGI (DLD-1 colon): 57.2 µM; TGI (DMS 114 small cell lung): 28.2 µM; TGI (EKVX NSCLC): 51.7 µM; TGI (HCC-2998 colon): > 100 µM; TGI (HCT-116 colon): > 54.4 µM; TGI (HCT-15 colon): 42 µM; TGI (HL-60(TB) leukemia): 33.6 µM; TGI (HOP-18 NSCLC): > 100 µM; TGI (HOP-62 NSCLC): > 100 µM; TGI (HOP-92 NSCLC): 39.2 µM; TGI (HT29 colon): > 65 µM; TGI (IGROV1 ovarian): 43 µM; TGI (K-562 leukemia): 41 µM; TGI (KM12 colon): 50.9 µM; TGI (KM20L2 colon): 98.6 µM; TGI (LOX IMVI melanoma): 31.2 µM; TGI (LXFL 529 NSCLC): 22.9 µM; TGI (M14 melanoma): 59.4 µM; TGI (M19-MEL melanoma): > 55.4 µM; TGI (MALME-3M melanoma): 41 µM; TGI (MOLT-4 leukemia): > 70 µM; TGI (NCI-H226 lung): > 100 µM; TGI (NCI-H23 lung): > 31.6 µM; TGI (NCI-H460 lung): > 100 µM; TGI (NCI-H522 lung): 32.4 µM; TGI (OVCAR-3 ovarian): 32.2 µM; TGI (OVCAR-5 ovarian): > 89.9 µM; TGI (OVCAR-8 ovarian): 36 µM; TGI (RPMI-8226 leukemia): > 72 µM; TGI (RXF 393 renal): 26.6 µM; TGI (RXF-631 renal): 51.7 µM; TGI (SF-268 CNS): > 75.1 µM; TGI (SF-295 CNS): > 72.5 µM; TGI (SF-539 CNS): 77.7 µM; TGI (SK-MEL-2 melanoma): 97.7 µM; TGI (SK-MEL-28 melanoma): 22 µM; TGI (SK-MEL-5 melanoma): 27.5 µM; TGI (SK-OV-3 ovarian): > 100 µM; TGI (SN12C renal): 37.8 µM; TGI (SNB-19 CNS): > 77.2 µM; TGI (SNB-75 CNS): > 100 µM; TGI (SNB-78 CNS): 74.2 µM; TGI (SR leukemia): > 100 µM; TGI (SW-620 colon): > 55.2 µM; TGI (TK-10 renal): > 31.6 µM; TGI (U251 CNS): 44.9 µM; TGI (UACC-257 melanoma): 33 µM; TGI (UACC-62 melanoma): 33.1 µM; TGI (UO-31 renal): > 87.9 µM; TGI (XF 498 CNS): 17.8 µM

From PubChem BioAssay (NCI)
